Measurements as given in ChEMBL document CHEMBL5506024, “Multitarget μ-Opioid Receptor Agonists─Neuropeptide FF Receptor Antagonists Induce Potent Antinociception with Reduced Adverse Side Effects” (J Med Chem, 2024).
pEC50, pKi: −log10 of the molar value. Active and inactive are the calls of the source. The rule behind the calls is not given here.

Tests used:
Mu-type opioid receptor [1] = target: T1, Mu-type opioid receptor (Homo sapiens, UniProt P35372); test: Agonist activity at human MOP expressed in HEK293 cells coexpressing GloSensor-20F assessed as inhibition of forskolin-induced cAMP accumulation; format: functional, cell-based
[2] = target: T2, Prolactin-releasing peptide receptor (Homo sapiens) (UniProt P49683); test: Agonist activity at human GPR10 expressed in CHO cells assessed as intracellular calcium release upto 10 uM by Fluo-4 AM dye based calcium mobilization assay; format: functional, cell-based
T2 sequence (whole entry): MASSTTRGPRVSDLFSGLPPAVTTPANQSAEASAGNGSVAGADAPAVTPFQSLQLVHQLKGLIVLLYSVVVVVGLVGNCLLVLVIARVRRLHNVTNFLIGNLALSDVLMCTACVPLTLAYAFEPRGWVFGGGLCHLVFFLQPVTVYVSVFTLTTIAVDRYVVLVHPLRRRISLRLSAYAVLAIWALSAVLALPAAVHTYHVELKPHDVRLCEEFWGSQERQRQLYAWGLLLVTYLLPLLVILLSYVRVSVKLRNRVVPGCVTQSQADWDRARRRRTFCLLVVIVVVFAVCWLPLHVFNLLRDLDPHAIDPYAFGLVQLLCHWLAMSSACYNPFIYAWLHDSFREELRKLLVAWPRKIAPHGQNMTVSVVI

[3] = target: T3, Neuropeptide FF receptor 2 (Homo sapiens, UniProt Q9Y5X5); test: Antagonist activity at human NPFFR2 expressed in CHO cell membrane assessed as inhibition of NPVF induced cAMP response at 5 uM incubated for 1 hr by Topcount counting method relative to control; format: functional, cell membranes; parameters: scale not given: the % may be the effect or the level left; conditions: filed as antagonist
[4] = target: T4, Pyroglutamylated RF-amide peptide receptor (Homo sapiens) (UniProt Q96P65); test: Agonist activity at human GPR103 expressed in CHO cells assessed as intracellular calcium release upto 10 uM by Fluo-4 AM dye based calcium mobilization assay; format: functional, cell-based
T4 sequence (whole entry): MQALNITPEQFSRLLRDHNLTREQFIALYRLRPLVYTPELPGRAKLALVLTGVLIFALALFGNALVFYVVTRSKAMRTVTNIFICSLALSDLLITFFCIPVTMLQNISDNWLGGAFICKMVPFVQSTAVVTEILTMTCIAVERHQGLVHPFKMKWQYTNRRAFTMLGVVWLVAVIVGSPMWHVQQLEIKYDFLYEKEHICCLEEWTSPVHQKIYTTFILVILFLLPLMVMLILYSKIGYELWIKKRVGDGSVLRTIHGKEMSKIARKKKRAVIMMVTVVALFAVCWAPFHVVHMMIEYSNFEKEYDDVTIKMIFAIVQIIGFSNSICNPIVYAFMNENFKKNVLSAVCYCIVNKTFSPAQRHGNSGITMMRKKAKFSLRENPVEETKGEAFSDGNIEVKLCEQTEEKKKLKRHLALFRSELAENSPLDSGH

[5] = Drug concentration in mouse plasma at 10 mg/kg, sc measured after 2 hrs by LC-MS/MS analysis; format: ADME, organism-based
[6] = target: T3, Neuropeptide FF receptor 2; test: Displacement of [125I]-1DMeNPFF from human NPFFR2 expressed in CHO cell membrane incubated for 1 hr by Topcount counting method; format: cell membranes
Mus musculus [7] = test: Antinociceptive activity in mouse at 2.5 to 10 mg/kg, sc measured after 6 hrs by tail immersion test; format: functional, organism-based; conditions: dose 2.5-10 mg/kg
[8] = target: Delta-type opioid receptor (Homo sapiens) (UniProt P41143); test: Agonist activity at human DOP expressed in HEK293 cells assessed as inhibition of forskolin-induced cAMP accumulation; format: functional, cell-based; conditions: filed as agonist
Mus musculus [9] = test: Antinociceptive activity in mouse at 2.5 to 10 mg/kg, sc measured after 24 hrs by tail immersion test; format: functional, organism-based; conditions: dose 2.5-10 mg/kg
[10] = Induction of naltrexone-precipitated withdrawal syndrome in sc dosed C57BL/6N mouse assessed as wet dog shake counts administered for 8 days followed by naltrexone addition on day 9 after 2 hrs post last dose and measured after 30 mins; format: toxicity, organism-based; conditions: in vivo, 216.5 h, time 12990 min
[11] = target: T5, Neuropeptide FF receptor 1 (Homo sapiens, UniProt Q9GZQ6); test: Displacement of [125I]-1DMeNPFF from human NPFFR1 expressed in CHO cell membrane at 0.5 uM incubated for 1 hr by Topcount counting method relative to control; format: cell membranes
[12] = target: T3, Neuropeptide FF receptor 2; test: Displacement of [125I]-1DMeNPFF from human NPFFR2 expressed in CHO cell membrane at 0.05 uM incubated for 1 hr by Topcount counting method relative to control; format: cell membranes; conditions: filed as antagonist
[13] = target: Kappa-type opioid receptor (Homo sapiens, UniProt P41145); test: Partial agonist activity at human KOR expressed in HEK293 cells assessed as forskolin-induced cAMP accumulation in presence of IBMX; format: functional, cell-based; conditions: filed as partial agonist
Mu-type opioid receptor [14] = target: T1, Mu-type opioid receptor; test: Agonist activity at human MOP expressed in HEK293 cells coexpressing GloSensor-20F assessed as inhibition of forskolin-induced cAMP accumulation relative to control; format: functional, cell-based; conditions: filed as agonist
[15] = target: Nociceptin receptor (Homo sapiens) (UniProt P41146); test: Antagonist activity at human NOR expressed in HEK293 cells assessed as forskolin-induced cAMP accumulation in presence of IBMX; format: functional, cell-based; conditions: filed as antagonist
Mu-type opioid receptor [16] = target: T1, Mu-type opioid receptor; test: Agonist activity at human Rluc8-tagged MOP expressed in HEK293 cells coexpressing eYFP-tagged beta-arrestin-2 assessed as beta-arrestin-2 recruitment incubated for 5 mins by luminometer analysis; format: functional, cell-based; conditions: read-out: EC50
[17] = target: T5, Neuropeptide FF receptor 1; test: Antagonist activity at human NPFFR1 expressed in CHO cell membrane assessed as inhibition of NPVF induced cAMP response at 5 uM incubated for 1 hr by Topcount counting method relative to control; format: functional, cell membranes; parameters: scale not given: the % may be the effect or the level left
[18] = target: T4, Pyroglutamylated RF-amide peptide receptor (Homo sapiens); test: Antagonist activity at human GPR103 expressed in CHO cells assessed as intracellular calcium release upto 10 uM by Fluo-4 AM dye based calcium mobilization assay; format: functional, cell-based
[19] = target: T2, Prolactin-releasing peptide receptor (Homo sapiens); test: Antagonist activity at human GPR10 expressed in CHO cells assessed as intracellular calcium release upto 10 uM by Fluo-4 AM dye based calcium mobilization assay; format: functional, cell-based
[20] = Toxicity in C57BL/6N mouse assessed as induction of respiratory depression by measuring decrease in pulmonary rate at 3.2 to 31.8 mg/kg, sc by plethysmography; format: organism-based; conditions: in vivo, dose 3.2-31.8 mg/kg
Mus musculus [21] = test: Antinociceptive activity in mouse at 4.2 umol/kg, sc administered chronically and measured on day 1; format: functional, organism-based; conditions: dose 4.2 µmol/kg
[22] = Half life in mouse at 10 mg/kg, sc measured upto 24 hrs by LC-MS/MS analysis; format: ADME, organism-based; conditions: in vivo
[23] = Tmax in mouse at 10 mg/kg, sc measured upto 24 hrs by LC-MS/MS analysis; format: ADME, organism-based; conditions: in vivo
[24] = target: T5, Neuropeptide FF receptor 1; test: Antagonist potency at human NPFFR1 expressed in CHO cell membrane assessed as inhibition of NPVF induced cAMP response incubated for 1 hr by Topcount counting method; format: functional, cell membranes; conditions: read-out: pA2 (converted)
[25] = target: T3, Neuropeptide FF receptor 2; test: Antagonist potency at human NPFFR2 expressed in CHO cell membrane assessed as inhibition of NPVF induced cAMP response incubated for 1 hr by Topcount counting method; format: functional, cell membranes; conditions: read-out: pA2 (converted)
Mu-type opioid receptor [26] = target: T1, Mu-type opioid receptor; test: Agonist activity at human Rluc8-tagged MOP expressed in HEK293 cells coexpressing eYFP-tagged beta-arrestin-2 assessed as beta-arrestin-2 recruitment incubated for 5 mins by luminometer analysis relative to control; format: functional, cell-based
[27] = target: KiSS-1 receptor (Homo sapiens) (UniProt Q969F8); test: Antagonist activity at human GPR54 expressed in CHO cells assessed as intracellular calcium release upto 10 uM by Fluo-4 AM dye based calcium mobilization assay; format: functional, cell-based
Mus musculus [28] = test: Antinociceptive activity in mouse at 4.2 umol/kg, sc administered chronically and measured on day 8; format: functional, organism-based; conditions: dose 4.2 µmol/kg
[29] = target: T5, Neuropeptide FF receptor 1; test: Displacement of [125I]-1DMeNPFF from human NPFFR1 expressed in CHO cell membrane incubated for 1 hr by Topcount counting method; format: cell membranes
Mus musculus [30] = test: Antinociceptive activity in mouse at 4.2 umol/kg, sc administered daily and measured on day 1 and 8; format: functional, organism-based; conditions: dose 4.2 µmol/kg
[31] = target: KiSS-1 receptor (Homo sapiens) (UniProt Q969F8); test: Agonist activity at human GPR54 expressed in CHO cells assessed as intracellular calcium release upto 10 uM by Fluo-4 AM dye based calcium mobilization assay; format: functional, cell-based
[32] = Induction of naltrexone-precipitated withdrawal syndrome in sc dosed C57BL/6N mouse assessed as paw tremor administered for 8 days followed by naltrexone addition on day 9 after 2 hrs post last dose and measured after 30 mins; format: toxicity, organism-based; conditions: in vivo, 216.5 h, time 12990 min
[33] = Induction of motor coordination impairment in C57BL/6 mouse at 10.5 mg/kg, sc by rotarod assay; format: toxicity, organism-based; conditions: in vivo
[34] = Cmax in mouse at 10 mg/kg, sc measured upto 24 hrs by LC-MS/MS analysis; format: ADME, organism-based; conditions: in vivo
[35] = Induction of naltrexone-precipitated withdrawal syndrome in sc dosed C57BL/6N mouse assessed as diarrhea administered for 8 days followed by naltrexone addition on day 9 after 2 hrs post last dose and measured after 30 mins; format: toxicity, organism-based; conditions: in vivo, 216.5 h, time 12990 min
[36] = Induction of naltrexone-precipitated withdrawal syndrome in sc dosed C57BL/6N mouse assessed as high jumping score administered for 8 days followed by naltrexone addition on day 9 after 2 hrs post last dose and measured after 30 mins; format: toxicity, organism-based; conditions: in vivo, 216.5 h, time 12990 min

T1 sequence (P35372 whole entry): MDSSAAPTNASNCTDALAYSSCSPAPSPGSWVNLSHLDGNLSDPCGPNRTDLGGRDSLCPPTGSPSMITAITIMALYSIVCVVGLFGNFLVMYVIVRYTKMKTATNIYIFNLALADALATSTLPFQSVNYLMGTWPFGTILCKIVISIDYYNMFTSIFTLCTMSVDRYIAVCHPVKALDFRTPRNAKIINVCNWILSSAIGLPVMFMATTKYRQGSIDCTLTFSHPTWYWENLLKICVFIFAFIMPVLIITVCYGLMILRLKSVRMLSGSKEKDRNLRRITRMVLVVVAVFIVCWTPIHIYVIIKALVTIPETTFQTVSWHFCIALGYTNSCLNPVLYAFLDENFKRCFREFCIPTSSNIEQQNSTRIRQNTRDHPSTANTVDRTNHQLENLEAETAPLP
T5 sequence (Q9GZQ6 whole entry): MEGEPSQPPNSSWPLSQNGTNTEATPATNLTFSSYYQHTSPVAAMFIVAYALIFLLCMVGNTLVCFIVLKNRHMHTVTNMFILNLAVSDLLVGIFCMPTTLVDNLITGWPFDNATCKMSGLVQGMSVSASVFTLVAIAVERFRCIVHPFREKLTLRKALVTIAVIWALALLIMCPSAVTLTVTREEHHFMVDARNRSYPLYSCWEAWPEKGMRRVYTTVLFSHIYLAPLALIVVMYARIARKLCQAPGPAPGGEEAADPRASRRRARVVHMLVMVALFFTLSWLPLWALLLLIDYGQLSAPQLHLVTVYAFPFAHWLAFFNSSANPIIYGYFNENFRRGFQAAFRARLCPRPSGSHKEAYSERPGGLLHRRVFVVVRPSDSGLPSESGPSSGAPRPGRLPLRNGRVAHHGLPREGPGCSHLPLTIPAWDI
T3 sequence (Q9Y5X5 whole entry): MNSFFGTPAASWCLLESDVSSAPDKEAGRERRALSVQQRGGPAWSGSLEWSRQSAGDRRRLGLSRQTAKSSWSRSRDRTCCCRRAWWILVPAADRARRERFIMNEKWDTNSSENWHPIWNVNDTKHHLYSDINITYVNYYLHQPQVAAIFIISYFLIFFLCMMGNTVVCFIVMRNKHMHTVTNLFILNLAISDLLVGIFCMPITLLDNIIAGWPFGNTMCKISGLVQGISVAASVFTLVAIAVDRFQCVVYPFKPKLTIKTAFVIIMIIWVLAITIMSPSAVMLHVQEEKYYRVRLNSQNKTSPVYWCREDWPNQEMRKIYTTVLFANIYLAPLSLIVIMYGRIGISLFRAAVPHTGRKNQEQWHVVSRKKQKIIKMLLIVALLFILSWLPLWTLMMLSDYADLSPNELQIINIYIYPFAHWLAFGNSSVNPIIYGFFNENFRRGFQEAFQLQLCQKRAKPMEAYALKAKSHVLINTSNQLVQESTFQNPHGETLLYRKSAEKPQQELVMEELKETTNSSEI
KiSS-1 receptor (Homo sapiens), sequence (Q969F8 whole entry): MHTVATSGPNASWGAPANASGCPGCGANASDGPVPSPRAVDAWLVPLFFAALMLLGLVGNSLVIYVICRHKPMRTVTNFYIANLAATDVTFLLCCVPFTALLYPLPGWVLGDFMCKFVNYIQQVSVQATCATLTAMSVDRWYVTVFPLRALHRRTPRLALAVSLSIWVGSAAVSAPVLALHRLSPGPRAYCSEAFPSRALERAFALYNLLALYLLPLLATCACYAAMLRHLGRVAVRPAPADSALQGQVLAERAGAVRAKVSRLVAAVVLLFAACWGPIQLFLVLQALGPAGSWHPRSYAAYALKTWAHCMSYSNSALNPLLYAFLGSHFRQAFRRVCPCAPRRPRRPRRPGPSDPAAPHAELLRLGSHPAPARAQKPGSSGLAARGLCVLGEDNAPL
Kappa-type opioid receptor, sequence (P41145 whole entry): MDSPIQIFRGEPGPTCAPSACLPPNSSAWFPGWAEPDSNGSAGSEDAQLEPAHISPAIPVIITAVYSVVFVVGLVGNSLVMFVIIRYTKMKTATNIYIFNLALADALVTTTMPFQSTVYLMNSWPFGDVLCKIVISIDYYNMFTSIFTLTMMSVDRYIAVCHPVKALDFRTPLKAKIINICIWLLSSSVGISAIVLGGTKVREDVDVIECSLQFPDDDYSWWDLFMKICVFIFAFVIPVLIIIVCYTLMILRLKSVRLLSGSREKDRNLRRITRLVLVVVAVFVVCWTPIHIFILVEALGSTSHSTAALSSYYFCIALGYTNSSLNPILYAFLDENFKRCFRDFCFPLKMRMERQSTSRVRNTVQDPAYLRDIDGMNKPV
Nociceptin receptor (Homo sapiens), sequence (P41146 whole entry): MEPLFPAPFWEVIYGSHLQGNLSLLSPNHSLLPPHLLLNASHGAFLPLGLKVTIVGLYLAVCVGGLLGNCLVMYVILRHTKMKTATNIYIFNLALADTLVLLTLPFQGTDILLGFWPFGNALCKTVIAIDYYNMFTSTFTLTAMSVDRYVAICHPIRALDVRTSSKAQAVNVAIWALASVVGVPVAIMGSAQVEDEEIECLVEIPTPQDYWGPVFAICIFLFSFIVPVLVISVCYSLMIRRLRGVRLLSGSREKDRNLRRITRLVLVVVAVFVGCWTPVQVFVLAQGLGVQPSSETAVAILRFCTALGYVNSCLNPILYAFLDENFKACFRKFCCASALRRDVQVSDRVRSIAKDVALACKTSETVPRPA
Delta-type opioid receptor (Homo sapiens), sequence (P41143 whole entry): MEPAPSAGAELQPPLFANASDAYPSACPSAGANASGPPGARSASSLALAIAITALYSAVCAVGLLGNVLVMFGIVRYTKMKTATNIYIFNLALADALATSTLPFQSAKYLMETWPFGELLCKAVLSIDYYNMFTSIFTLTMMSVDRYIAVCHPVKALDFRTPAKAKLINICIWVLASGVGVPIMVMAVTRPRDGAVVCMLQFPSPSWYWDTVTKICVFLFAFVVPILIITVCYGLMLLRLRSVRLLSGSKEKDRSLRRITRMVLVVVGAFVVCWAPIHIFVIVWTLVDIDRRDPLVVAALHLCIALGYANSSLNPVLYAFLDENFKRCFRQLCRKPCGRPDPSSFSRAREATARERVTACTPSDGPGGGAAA

## Cc1cc(O)cc(C)c1C[C@H](N)C(=O)N(C)[C@H](C)C(=O)N[C@H]1Cc2c(ccc3ccccc23)CN(CCC(=O)N[C@@H](CCCN2CCC(Cc3ccccc3)CC2)C(=O)N[C@@H](Cc2ccccc2)C(N)=O)C1=O
Mu-type opioid receptor [1]
  pEC50: 8.35
[2]
  Activity: inactive
[3]
  Activity: 83%
[4]
  Activity: inactive
[5]
  concentration at 2 h: 837 nM
[6]
  pKi: 7.49
Mus musculus [7]
  Activity: Active
[8]
  Activity: Active
Mus musculus [9]
  Activity: Active
[10]
  Activity: Non-Toxic
[11]
  Activity: 19%
[12]
  Activity: 57%
[13]
  Activity: Active
Mu-type opioid receptor [14]
  Emax: 75%
[15]
  Activity: Active
Mu-type opioid receptor [16]
  pEC50: < 5.40
[17]
  Activity: 26%
[18]
  Activity: inactive
[19]
  Activity: inactive
[20]
  Activity: Non-Toxic
Mus musculus [21]
  Activity: Active
[22]
  half-life: 3.3 h
[23]
  Tmax: 2.33 h
[24]
  Kb: 2450 nM
[25]
  Kb: 45.7 nM
Mu-type opioid receptor [26]
  Emax: 24%
[27]
  Activity: inactive
Mus musculus [28]
  Activity: inactive
[29]
  pKi: 5.88
Mus musculus [30]
  Activity: Active
[31]
  Activity: inactive
[32]
  Activity: Non-Toxic
[33]
  Activity: Non-Toxic
[34]
  Cmax: 805 nM
[35]
  Activity: Non-Toxic
[36]
  Activity: Non-Toxic
